According to paper PMC6979384, “Characterization of the plant homeodomain (PHD) reader family for their histone tail interactions” (Epigenetics & Chromatin, 2020):

Experiments:
Test in all cases: Histone peptide microarray
Type in all cases: binding, human
[1] = test system: KDM4C (TTP); details: KDM4C (TTP); sheet "Array Heatmap"; each array performed twice, total n = 4
Summary of the method: (§1)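 Purified PHD finger domains fused to GST are screened against 293 synthetic histone peptides bearing one or several post-translational modifications. The protein is used at 0.5 μM, and the signal from four replicate arrays is averaged, with standard deviation given.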

[2] = test system: KDM7A; details: KDM7A; sheet "Array Heatmap"; each array performed twice, total n = 4
Summary of the method: as §1

[3] = test system: ING4; details: ING4; sheet "Array Heatmap"; each array performed twice, total n = 4
Summary of the method: as §1

[4] = test system: KDM5B (3); details: KDM5B (3); sheet "Array Heatmap"; each array performed twice, total n = 4
Summary of the method: as §1

[5] = test system: DIDO1; details: DIDO1; sheet "Array Heatmap"; each array performed twice, total n = 4
Summary of the method: as §1

[6] = test system: ING2; details: ING2; sheet "Array Heatmap"; each array performed twice, total n = 4
Summary of the method: as §1

[7] = test system: PHF23; details: PHF23; sheet "Array Heatmap"; each array performed twice, total n = 4
Summary of the method: as §1

[8] = test system: MLL5; details: MLL5; sheet "Array Heatmap"; each array performed twice, total n = 4
Summary of the method: as §1

[9] = test system: AIRE (PP); details: AIRE (PP); sheet "Array Heatmap"; each array performed twice, total n = 4
Summary of the method: as §1

[10] = test system: ING5; details: ING5; sheet "Array Heatmap"; each array performed twice, total n = 4
Summary of the method: as §1

[11] = test system: ING3; details: ING3; sheet "Array Heatmap"; each array performed twice, total n = 4
Summary of the method: as §1

[12] = test system: SP140L; details: SP140L; sheet "Array Heatmap"; each array performed twice, total n = 4
Summary of the method: as §1

[13] = test system: PHF21A; details: PHF21A; sheet "Array Heatmap"; each array performed twice, total n = 4
Summary of the method: as §1

[14] = test system: BPTF (PB); details: BPTF (PB); sheet "Array Heatmap"; each array performed twice, total n = 4
Summary of the method: as §1

[15] = test system: BAZ2B; details: BAZ2B; sheet "Array Heatmap"; each array performed twice, total n = 4
Summary of the method: as §1

[16] = test system: ING1; details: ING1; sheet "Array Heatmap"; each array performed twice, total n = 4
Summary of the method: as §1

[17] = test system: PHF2; details: PHF2; sheet "Array Heatmap"; each array performed twice, total n = 4
Summary of the method: as §1

[18] = test system: KDM5A (1); details: KDM5A (1); sheet "Array Heatmap"; each array performed twice, total n = 4
Summary of the method: as §1

[19] = test system: RAG2; details: RAG2; sheet "Array Heatmap"; each array performed twice, total n = 4
Summary of the method: as §1

[20] = test system: CHD5 (PPCC); details: CHD5 (PPCC); sheet "Array Heatmap"; each array performed twice, total n = 4
Summary of the method: as §1

[21] = test system: KDM5B (1); details: KDM5B (1); sheet "Array Heatmap"; each array performed twice, total n = 4
Summary of the method: as §1

[22] = test system: KDM5A (3); details: KDM5A (3); sheet "Array Heatmap"; each array performed twice, total n = 4
Summary of the method: as §1

[23] = test system: TAF3; details: TAF3; sheet "Array Heatmap"; each array performed twice, total n = 4
Summary of the method: as §1

[24] = test system: DPF2 (PPC2W2); details: DPF2 (PPC2W2); sheet "Array Heatmap"; each array performed twice, total n = 4
Summary of the method: as §1

[25] = test system: CHD5 (PCC); details: CHD5 (PCC); sheet "Array Heatmap"; each array performed twice, total n = 4
Summary of the method: as §1

[26] = test system: PHF13; details: PHF13; sheet "Array Heatmap"; each array performed twice, total n = 4
Summary of the method: as §1

[27] = test system: TRIM66 (PB); details: TRIM66 (PB); sheet "Array Heatmap"; each array performed twice, total n = 4
Summary of the method: as §1

[28] = test system: MORC3 (CW); details: MORC3 (CW); sheet "Array Heatmap"; each array performed twice, total n = 4
Summary of the method: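 Readout is array binding signal, reported as the mean and standard deviation over four replicates. Each purified GST-fused PHD domain was incubated at 0.5 μM with a library of 293 modified histone peptides.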

[29] = test system: PHF8; details: PHF8; sheet "Array Heatmap"; each array performed twice, total n = 4
Summary of the method: as §1

[30] = test system: CHD4 (PPCC); details: CHD4 (PPCC); sheet "Array Heatmap"; each array performed twice, total n = 4
Summary of the method: as §1

[31] = test system: PHRF1 (RP); details: PHRF1 (RP); sheet "Array Heatmap"; each array performed twice, total n = 4
Summary of the method: as §1

Substance	Array Heatmap value (peptide array signal) [1]	Array Heatmap value (peptide array signal) [2]	Array Heatmap value (peptide array signal) [3]	Array Heatmap value (peptide array signal) [4]	Array Heatmap value (peptide array signal) [5]	Array Heatmap value (peptide array signal) [6]	Array Heatmap value (peptide array signal) [7]	Array Heatmap value (peptide array signal) [8]	Array Heatmap value (peptide array signal) [9]	Array Heatmap value (peptide array signal) [10]	Array Heatmap value (peptide array signal) [11]	Array Heatmap value (peptide array signal) [12]	Array Heatmap value (peptide array signal) [13]	Array Heatmap value (peptide array signal) [14]	Array Heatmap value (peptide array signal) [15]	Array Heatmap value (peptide array signal) [16]	Array Heatmap value (peptide array signal) [17]	Array Heatmap value (peptide array signal) [18]	Array Heatmap value (peptide array signal) [19]	Array Heatmap value (peptide array signal) [20]	also measured
H4K5butK8butK12but: H4 1-23	0.4273	0.3032	0.4352	0.4196	0.6712	0.5892	0.5206	0.5293	0.3828	0.3275	0.4441	0.3551	0.3738	0.3272	0.414	0.5532	0.5429	0.419	0.2246	0.5134	Array Heatmap value (peptide array signal) [21]: 0.5776; Array Heatmap value (peptide array signal) [22]: 0.4238; Array Heatmap value (peptide array signal) [23]: 0.2569; Array Heatmap value (peptide array signal) [24]: 0.6505; Array Heatmap value (peptide array signal) [25]: 0.661; Array Heatmap value (peptide array signal) [26]: 0.5714; Array Heatmap value (peptide array signal) [27]: 0.5547; Array Heatmap value (peptide array signal) [28]: 0.3355; Array Heatmap value (peptide array signal) [29]: 0.3282; Array Heatmap value (peptide array signal) [30]: 0.5302; Array Heatmap value (peptide array signal) [31]: 0.4335
H4K5crK8crK12cr: H4 1-23	0.3678	0.2744	0.3713	0.4017	0.571	0.5899	0.4763	0.4572	0.3482	0.2562	0.3926	0.3203	0.3861	0.277	0.3353	0.4798	0.4485	0.3568	0.2029	0.4173	Array Heatmap value (peptide array signal) [21]: 0.5237; Array Heatmap value (peptide array signal) [22]: 0.3558; Array Heatmap value (peptide array signal) [23]: 0.2134; Array Heatmap value (peptide array signal) [24]: 0.6037; Array Heatmap value (peptide array signal) [25]: 0.6269; Array Heatmap value (peptide array signal) [26]: 0.5013; Array Heatmap value (peptide array signal) [27]: 0.525; Array Heatmap value (peptide array signal) [28]: 0.2832; Array Heatmap value (peptide array signal) [29]: 0.292; Array Heatmap value (peptide array signal) [30]: 0.5037; Array Heatmap value (peptide array signal) [31]: 0.3292
